One data set deals with T1, recombinant HIV-1 RT (Human immunodeficiency virus type 1 group M subtype B, UniProt P04585).
T1 construct: recombinant HIV-1 RT; purchased Roche
Put plainly: HIV-1 RT RDDP inhibitory activity (Roche colorimetric immunoassay kit). The class given is biochemical. As to the method: As described in our previous work, HIV-1 reverse transcriptase (RT) activity was measured using the Roche colorimetric immunoassay kit. DNA synthesis by RT was quantified after 2 h incubation at 37 °C. The reaction included PolyA:oligodT RNA template, recombinant HIV-1 RT, and various substrates, with biotin-DIG-labeled DNA detected via streptavidin-coated ELISA wells. Inhibitor activity was tested by pre-incubating RT with compounds before substrate addition. The absorbance at 405 nm was measured to calculate enzyme activity and IC50 values. […] The experiment was performed in triplicate. The data analysis for obtaining the IC50 values and standard deviation (SD)was performed using nonlinear regression analysis, specifically fitting the dose–response curves to a sigmoidal model (log(inhibitor) vs. response) using the software GraphPad Prism 10.

Data set [1] deals with T2, HIV-1 RT-associated RNase H (Human immunodeficiency virus type 1 group M subtype B, UniProt P04585).
T2 construct: quantification of RNase H activity of reverse transcriptase (RT) enzyme
Put plainly: RT RNase H polymerase-independent cleavage assay. Format: biochemical. As to the method:
The HIV-1 RT-associated RNase H activity was measured following the protocol cited by the detection and quantification of RNase H activity of reverse transcriptase (RT) enzyme with a hybrid substrate formed by a fluorescein labeled RNA annealed with Dabcyl DNA. In this assay the reaction mixture containing tris–HCl, pH 7.8, MgCl2, dithiothreitol (DTT), KCl, hybrid RNA/DNA (5′-[…]-3′-fluorescein,5′-[…]-3′-Dabcyl), and RT were incubated for 1 h at 37 °C, the reaction was stopped by the addition of EDTA, and products were measured with a Victor 3 (Perkin PerkinElmer VICTOR X3 Multilabel Counter Microplate Reader, Cridersville, OH, USA ) at 490/528 nm. The experiment was performed in triplicate. IC50 values were determined through nonlinear regression analysis, where the dose–response curves were fitted to a sigmoidal model (log(inhibitor) vs. response) using GraphPad Prism 10 software.

A short description of data set [2]: Cellular viability, CCK cell viability assay. Format: cell-based. The following applies: human, MRC-5 cells (normal fetal lung fibroblasts). The procedure: For the evaluation of cytotoxicity, compounds 1–15 were tested in the human normal fetal lung fibroblast MRC-5 cell line using the CCK cell viability assay. Each substance was tested at three different concentrations: 0.1 μM, 1 μM, and 10 μM. […] However, since all viability percentages were above 50%, no CC50 value could be calculated.
The normal human fetal lung fibroblast MRC-5 cell line (SI , 7)was cultured under standard conditions. Compounds were tested at 10 μM, 1 μM, and 0.1 μM. Results are expressed as mean ± standard deviation (SD) from triplicate experiments.
The previously established human normal MRC‐5 (human fetal lung fibroblasts; RRID:CVCL_0440)
approved for vaccine production was obtained, stored and used in a routine manner (1,2) in the
Laboratory of Pharmacology, School of Pharmacy, Aristotle University of Thessaloniki, Greece
(Laboratory of Ioannis S. Vizirianakis, Associate Professor in Molecular Pharmacology and
Pharmacogenomics) (<25 passages was applied). […]
Cell line MRC-5 information
ID/Proper Citation: (RRID:CVCL_0440)
URL: https://web.expasy.org/cellosaurus/CVCL_0440

In the next data set the test system is HIV-1. The following applies: cited from earlier work.
In data set [3] the target is T2, HIV-1 RT-associated RNase H. Details: method as in PMID 25092689. The following applies: cited from earlier work.

SMILES strings stand for the structures. Like-named read-outs stand apart in the source and are kept apart here.

By IC50 is commonly meant the concentration at which inhibition is half-maximal. For orientation: inhibition means how much of the control response was suppressed. The term viability denotes a read-out of living cells in per cent, often relative to untreated cells. Read a high viability as less harm to the cells. As to `O=C1CSC(c2ccc(F)cc2)N1c1cccc(S(=O)(=O)Nc2nccs2)c1` (stereo not shown) [Compound 1, 3-(2-(4-Fluorophenyl)-4-oxothiazolidin-3-yl)-N-(thiazol-2-yl)benzenesulfonamide], on recombinant HIV-1 RT, the IC50 was 2.23 ± 0.15 µM and the inhibition at 4 µM came to 68.3%. For the same molecule, in data set [1], the IC50 was 14.3 ± 1.3 µM. Also, the viability at 24 h, 10 µM in data set [2] was over 50%.

Consider `O=C1CSC(c2ccc(F)cc2)N1c1nc(-c2cccc(S(=O)(=O)N3CCCC3)c2)cs1` (stereo not shown) [Compound 2, 2-(4-Fluorophenyl)-3-(4-(3-(pyrrolidin-1-ylsulfonyl)phenyl)thiazol-2-yl)thiazolidin-4-one], for which the IC50 was over 4 µM on recombinant HIV-1 RT and over 50 µM in data set [1]. For the same molecule, the inhibition at 4 µM at recombinant HIV-1 RT is 8.36%. The molecule further returned a viability at 24 h, 10 µM in data set [2] of over 50%.

`O=C1CSC(c2c(F)cccc2F)N1c1nc(-c2cccc(S(=O)(=O)N3CCCC3)c2)cs1` (stereo not shown) [Compound 3, 2-(2,6-Difluorophenyl)-3-(4-(3-(pyrrolidin-1-ylsulfonyl)phenyl)thiazol-2-yl)thiazolidin-4-one]: at recombinant HIV-1 RT, the IC50 was over 4 µM and the inhibition at 4 µM was 24.3%. In data set [1], this molecule registered an IC50 of over 50 µM. The molecule further yielded a viability at 24 h, 10 µM in data set [2] of over 50%.

With `COc1ccc(OC)c(C2SCC(=O)N2c2nc(-c3cccc(S(=O)(=O)N4CCCC4)c3)cs2)c1` (stereo not shown) [Compound 4, 2-(2,5-Dimethoxyphenyl)-3-(4-(3-(pyrrolidin-1-ylsulfonyl)phenyl)thiazol-2-yl)thiazolidin-4-one], at recombinant HIV-1 RT, the IC50 was 0.58 ± 0.07 µM and the inhibition at 4 µM stood at 86.6%. Besides, in data set [1], half-maximal inhibition (IC50) required 1.47 ± 0.2 µM. Moreover, the viability at 24 h, 10 µM in data set [2] was over 50%.

Regarding `O=C1CSC(c2ccccc2O)N1c1nc(-c2cccc(S(=O)(=O)N3CCCC3)c2)cs1` (stereo not shown) [Compound 5, 2-(2-Hydroxyphenyl)-3-(4-(3-(pyrrolidin-1-ylsulfonyl)phenyl)thiazol-2-yl)thiazolidin-4-one], at recombinant HIV-1 RT, the IC50 was over 4 µM and the inhibition at 4 µM came out at 45.2%. In data set [1], this molecule registered a 50% inhibitory concentration (IC50) of 18 ± 2.1 µM. The molecule also came in with a viability at 24 h, 10 µM in data set [2] of over 50%.

For the molecule `COc1ccc(OC)c(C2SCC(=O)N2c2nc(-c3ccc(S(=O)(=O)N4CCOCC4)cc3)cs2)c1` (stereo not shown) [Compound 6, 2-(2,5-Dimethoxyphenyl)-3-(4-(4-(morpholinosulfonyl)phenyl)thiazol-2-yl)thiazolidin-4-one], on recombinant HIV-1 RT, the IC50 is 0.72 ± 0.06 µM and the inhibition at 4 µM came to 81.3%. The molecule further registered a concentration for half-maximal inhibition (IC50) in data set [1] of 2.5 ± 0.3 µM. Besides, the viability at 24 h, 10 µM in data set [2] is over 50%.

Regarding `O=C1CSC(c2ccc(F)cc2)N1c1nc(-c2ccc(S(=O)(=O)N3CCOCC3)cc2)cs1` (stereo not shown) [Compound 7, 2-(4-Fluorophenyl)-3-(4-(4-(morpholinosulfonyl)phenyl)thiazol-2-yl)thiazolidin-4-one], at recombinant HIV-1 RT, the IC50 was over 4 µM and the inhibition at 4 µM was 12%. The same molecule displayed an IC50 in data set [1] of over 50 µM. For the same molecule, the viability at 24 h, 10 µM in data set [2] is over 50%.

In the case of `O=C1CSC(c2c(F)cccc2F)N1c1nc(-c2ccc(S(=O)(=O)N3CCOCC3)cc2)cs1` (stereo not shown) [Compound 8, 2-(2,6-Difluorophenyl)-3-(4-(4-(morpholinosulfonyl)phenyl)thiazol-2-yl)thiazolidin-4-one], at recombinant HIV-1 RT, the IC50 is over 4 µM and the inhibition at 4 µM came to 33%. Further, the IC50 in data set [1] was over 50 µM. In addition, the viability at 24 h, 10 µM in data set [2] was over 50%.

For `O=C1CSC(c2c(Cl)cccc2Cl)N1c1nc(-c2ccc(S(=O)(=O)N3CCOCC3)cc2)cs1` (stereo not shown) [Compound 9, 2-(2,6-Dichlorophenyl)-3-(4-(4-(morpholinosulfonyl)phenyl)thiazol-2-yl)thiazolidin-4-one], at recombinant HIV-1 RT, the IC50 is over 4 µM and the inhibition at 4 µM came out at 2.48%. This molecule also showed a concentration for half-maximal inhibition (IC50) in data set [1] of 9.01 ± 0.1 µM. The viability at 24 h, 10 µM in data set [2] was over 50%.

`O=C1CSC(c2c(Cl)cccc2Cl)N1c1nc(-c2ccc(F)cc2)cs1` (stereo not shown) [Compound 10, 2-(2,6-Dichlorophenyl)-3-(4-(4-fluorophenyl)thiazol-2-yl)thiazolidin-4-one]: the results for the IC50 (at recombinant HIV-1 RT; in data set [1]) were over 4 µM and over 50 µM, respectively. For the same molecule, the inhibition at 4 µM at recombinant HIV-1 RT worked out at 1.59%. In data set [2], the viability at 24 h, 10 µM was over 50%.

For `O=C1CSC(c2c(F)cccc2Cl)N1c1nc2ccc(C(F)(F)F)cc2s1` (stereo not shown) [Compound 11, 2-(2-Chloro-6-fluorophenyl)-3-(6-(trifluoromethyl)benzo[d]thiazol-2-yl)thiazolidin-4-one], the IC50 at recombinant HIV-1 RT worked out at 0.32 ± 0.03 µM; in data set [1] it was 25.4 ± 0.4 µM. Also, the inhibition at 4 µM at recombinant HIV-1 RT was 92.4%. The viability at 24 h, 10 µM in data set [2] is over 50%.

For `O=C1CSC(c2c(F)cccc2F)N1c1nc(-c2ccc(F)cc2)cs1` (stereo not shown) [Compound 12, 2-(2,6-Difluorophenyl)-3-(4-(4-fluorophenyl)thiazol-2-yl)thiazolidin-4-one], the IC50 on recombinant HIV-1 RT was over 4 µM; in data set [1], over 50 µM. The inhibition at 4 µM at recombinant HIV-1 RT turned out to be 5.86%. In data set [2], this molecule had a viability at 24 h, 10 µM of over 50%.

As for `N#Cc1ccc2nc(N3C(=O)CSC3c3c(F)cccc3F)sc2c1` (stereo not shown) [Compound 13, 2-(2-(2,6-Difluorophenyl)-4-oxothiazolidin-3-yl)benzo[d]thiazole-6-carbonitrile], at recombinant HIV-1 RT, the IC50 is over 4 µM and the inhibition at 4 µM worked out at 21.4%. The same molecule yielded a 50% inhibitory concentration (IC50) in data set [1] of 16.4 ± 1.7 µM. For the same molecule, the viability at 24 h, 10 µM in data set [2] turned out to be 55%.

As for `O=C1CSC(c2c(F)cccc2F)N1c1nc2cc(-c3ccccc3)c(-c3ccccc3)cc2s1` (stereo not shown) [Compound 14, 2-(2,6-Difluorophenyl)-3-(5,6-diphenylbenzo[d]thiazol-2-yl)thiazolidin-4-one], the IC50 at recombinant HIV-1 RT is over 4 µM; in data set [1], over 50 µM. Moreover, the inhibition at 4 µM on recombinant HIV-1 RT turned out to be 7.9%. This molecule also returned a viability at 24 h, 10 µM in data set [2] of over 50%.

Turning to `O=C1CSC(c2c(Cl)cccc2Cl)N1c1nc2ccc(C(F)(F)F)cc2s1` (stereo not shown) [Compound 15, 2-(2,6-Dichlorophenyl)-3-(6-(trifluoromethyl)benzo[d]thiazol-2-yl)thiazolidin-4-one], at recombinant HIV-1 RT, the IC50 was over 4 µM and the inhibition at 4 µM came to 8.52%. The molecule also showed an IC50 in data set [1] of over 50 µM. The molecule further displayed a viability at 24 h, 10 µM in data set [2] of 57.9%.

Consider `Cc1ccnc2c1NC(=O)c1cccnc1N2C1CC1` [Nevirapine, reference compound], for which, on recombinant HIV-1 RT, the inhibition at 4 µM amounted to 93.8%.

With `CCOC(=O)C(=O)CC(=O)/C=C/c1cccn1Cc1ccccc1Cl` [RDS1759], in the data set on HIV-1, the “Inhibition of viral replication” value was “low micromolar range”. For the same molecule, in data set [3] (reference inhibitor), the IC50 is 7.3 ± 0.1 µM. Moreover, the “Inhibition of RNase H activity” value in data set [3] (selective) is “low micromolar range”.

The record behind these values is PMC11946194, “Rational Design, Synthesis, and Biological Evaluation of Novel Thiazole/Thiazolidinones Multitarget Anti-Human Immunodeficiency Virus Molecules” (Pharmaceuticals, 2025).
